Reference: patent US20200046836A1, “Terpene Carrier” (priority 2015, published 2020)
Read-outs that look alike come from different tables or passages of the source.

Key:
[1] = reported; cited from earlier work
[2] = cited from earlier work
[3] = Amount of lipophilic active ingredient that the carrier can hold in solution; format: physicochemical; details: Example 7

CCCCCc1cc(O)c2c(c1)OC(C)(CCC=C(C)C)C=C2 (stereo not shown) [CBC, cannabichromene]
effectiveness relative to CBD in the treatment of anxiety and stress [1]: about ten times more effective than CBD

CN1CCCC1c1cccnc1 (stereo not shown) [nicotine, reference compound]
LD50 (Lethal Dose) ([2]; nicotine as comparison): 40 to 60 mg/kg

C=C(C)[C@@H]1CCC(C)=C[C@H]1c1c(O)cc(CCCCC)cc1O [CBD, cannabidiol]
keeping CBD in solution in the propylene glycol/glycerine mixture ([3]; control carrier): difficult to maintain 10% by weight | CBD content of solution that could be prepared in the terpene mixture ([3]; terpene mixture): at least 30 % by weight

C=CC(C)(O)CCC=C(C)C (stereo not shown) [Linalool]
LD50 (Lethal Dose) ([2]; in vivo): 3000 mg/kg

C=CC(=C)CCC=C(C)C [Myrcene]
LD50 (Lethal Dose) ([2]; in vivo): > 5000 mg/kg

C=C1CC/C=C(\C)CC[C@@H]2[C@@H]1CC2(C)C [Beta-caryophyllene]
LD50 (Lethal Dose) ([2]; in vivo): > 5000 mg/kg
